Reference: US20130302389A1, “COSMETIC COMPOSITION CONTAINING AT LEAST TWO OSMOLYTES WITH A MOISTURIZING OR ANTIAGING EFFECT” (LVMH Recherche, priority 2008, published 2013)

Test system: HSPA1A
Assay: Stimulation of HSPA1A mRNA expression in normal human epidermal keratinocytes (RT-QPCR)
Assay type: cell-based
Details: 24 hours, mRNA by RT-QPCR relative to G3PDH, control (untreated cells) normalized to 100% expression
Procedure: Cell type: normal human keratinocytes (NHK) as an immersed monolayer, strongly post-confluent and at the third subculture.
Culture medium: low-calcium K-SFM (Invitrogen) supplemented with Epidermal Growth Factor (EGF Sigma) at 2.5 ng/ml, pituitary extract (EP Invitrogen) 2.5 μg/ml and gentamicin (Sigma) 25 μg/ml. For the treatments with the various compounds, this medium is replaced with K-SFM medium not supplemented with EGF and EP.
Treatment time: 24 hours with the various kosmotropes, and other molecules or extracts, and combinations thereof.
Test compounds: the taurine, D-trehalose, inositol and betaine (Sigma) are dissolved in the culture medium and tested at concentrations of 166 and 500 μg/ml, or, when this was not possible for reasons of solubility or cytotoxicity, at substantially lower concentrations.
The combination of these four compounds in proportions of 1/1/1/1 by weight is tested at the same concentrations.
Assays of the mRNA of HMSPA1A by RT-QPCR: at the end of the incubation period, the culture supernatants are removed and the cells, rinsed with PBS (Invitrogen), are covered with a solution of Tri-reagent (Sigma) and then frozen immediately at −80° C.
Extraction of the total RNA is performed according to the protocol of the Tri-reagent supplier (Sigma) and removal of the traces of DNA is performed with the DNA-free kit (Ambion). The reverse transcription reaction is performed using Oligo(dT) primers and the enzyme superscript II (Gibco).
The PCR (Polymerase Chain Reaction) reactions are performed using a Light Cycler (Roche Molecular Systems, Inc.) and according to the procedures recommended by the supplier. The pairs of primers used in this study allow amplification of the following fragments:
Homo sapiens heat shock protein HSP70 protein 1A (abbreviation HSPA1A; Gene bank NM 02045; fragment size 213 bp) and liver glyceraldehyde 3-phosphate dehydrogenase 1A (abbreviation G3PDH; Gene bank NM 02046; fragment size 269 bp) serving as the reference gene (caretaker gene) for determining the relative expression of the target HSPA1A.
The reaction medium (10 μl) is formed from the primers for the two target mRNAs (HSPA1A and G3PDH), 2.5 μl of tenfold-diluted cDNA, reaction mixture (Roche) containing the enzyme Taq DNA polymerase, SYBR Green I fluorochrome (which becomes incorporated into the double-stranded DNA during the elongation step), and MgCl2.
The incorporation of fluorescence into the amplified DNA is measured continuously in the course of the PCR cycles. For the same used marker, the later a sample leaves (high number of cycles), the lower the initial number of copies of mRNA.
Normal human keratinocyte cultures are treated for 24 hours with noncytotoxic doses (166 and 500 μg/ml) of each of the four osmolytes separately: taurine, D-trehalose, inositol and betaine. The transcriptional expression of HMSPA1A is measured by RT-PCR.
The control (untreated cells) is normalized to correspond to 100% expression.

SMILES | stimulation of expression of HSPA1A (166 μg/ml) [%] | stimulation of expression of HSPA1A (500 μg/ml) [%]
OC[C@H]1O[C@H](O[C@H]2O[C@H](CO)[C@@H](O)[C@H](O)[C@H]2O)[C@H](O)[C@@H](O)[C@@H]1O [D-trehalose] | 142 | 181
NCCS(=O)(=O)O [taurine] | 171 | 139
NCCS(=O)O [Hypotaurine, hypotaurine] | 379 | 
O[C@H]1[C@H](O)[C@@H](O)[C@H](O)[C@@H](O)[C@H]1O [inositol] | 90 | 101
C[N+](C)(C)CC(=O)O [betaine] | 52 | 85
